Article PMC6788984, “High-potency ligands for DREADD imaging and activation in rodents and monkeys” (Nature Communications, 2019)
Values joined by “and” are separate entries in the source; they are usually repeats but may differ in a detail not shown here. Equal values may be shown once. “Also recorded” adds a separate entry of the source.

How the values were obtained:
[1] = test system: untransfected HEK-293 cells; test: Negative controls of the functional assays: HEK-293 cells without DREADD; assay type: cell-based, human
[2] = target: T1, hM3Dq (Homo sapiens, UniProt P20309, A239G/Y149C); test: Intracellular Ca2+ assay (GCaMP6f) in HEK-293 cells transfected with hM3Dq; assay type: cell-based; parameters: host or cells: HEK-293; conditions: fluorescent assay in HEK-293 cells
T1 sequence (P20309 whole entry Y149C/A239G): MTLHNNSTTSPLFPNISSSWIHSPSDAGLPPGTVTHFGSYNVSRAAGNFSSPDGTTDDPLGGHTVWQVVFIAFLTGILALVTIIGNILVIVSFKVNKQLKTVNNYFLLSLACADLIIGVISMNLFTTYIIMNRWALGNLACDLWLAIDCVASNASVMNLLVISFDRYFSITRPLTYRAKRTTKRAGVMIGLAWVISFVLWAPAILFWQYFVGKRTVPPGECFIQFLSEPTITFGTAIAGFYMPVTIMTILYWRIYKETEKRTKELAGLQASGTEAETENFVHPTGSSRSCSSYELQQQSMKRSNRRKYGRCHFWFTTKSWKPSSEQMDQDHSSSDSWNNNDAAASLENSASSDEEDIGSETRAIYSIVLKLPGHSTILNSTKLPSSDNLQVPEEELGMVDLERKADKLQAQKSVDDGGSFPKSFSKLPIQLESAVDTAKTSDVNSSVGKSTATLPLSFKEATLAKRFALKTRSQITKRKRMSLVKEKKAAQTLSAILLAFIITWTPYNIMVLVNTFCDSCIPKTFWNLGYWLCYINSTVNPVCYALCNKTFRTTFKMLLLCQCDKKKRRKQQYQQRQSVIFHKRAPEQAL
Description: (§1) The indicated amount of cDNA was transfected into HEK-293 cells using polyethylenimine (PEI; Sigma-Aldrich) in a 1–2 DNA:PEI ratio. Cell harvesting for radioligand binding experiments or signaling assays were performed approximately 48 h after transfection.
Intracellular Ca^2+ concentration was monitored using the fluorescent Ca^2+ biosensor GCaMP6f. […] The net change in intracellular Ca^2+ concentration was expressed as F − F0 where F is the fluorescence at a given concentration of ligand and F0 is the average of the baseline values (fluorescence values of buffer-treated wells).

[3] = target: T1, hM3Dq; test: [3H]clozapine competition binding, membranes of HEK-293 cells expressing hM3Dq
Description: (§2) Cells were routinely tested for myclopasma contamination (MycoAlert® Mycoplasma Detection Kit, Lonza). Cells were seeded on 60 cm^2 dishes at 4 × 10^6 cells/dish 24 h before transfection. The indicated amount of cDNA was transfected into HEK-293 cells using polyethylenimine (PEI; Sigma-Aldrich) in a 1–2 DNA:PEI ratio. Cell harvesting for radioligand binding experiments or signaling assays were performed approximately 48 h after transfection.
(§3) Cells were suspended in Tris-HCl 50 mM pH 7.4 supplemented with protease inhibitor cocktail (1:100, Sigma-Aldrich, St. Louis, MO, USA). The dissected brain tissue was diluted in Tris-HCl 50 mM buffer supplemented with protease inhibitor cocktail (1:1000). HEK-293 cells or brain tissue were disrupted with a Polytron homogenizer (Kinematica, Basel, Switzerland). Homogenates were centrifuged at 48,000g (50 min, 4 °C) and washed twice in the same conditions to isolate the membrane fraction. Protein was quantified by the bicinchoninic acid method (Pierce). […] In all cases, free and membrane-bound radioligand were separated by rapid filtration of 500-μl aliquots in a 96-well plate harvester (Brandel, Gaithersburg, MD, USA) and washed with 2 ml of ice-cold Tris-HCl buffer. […] One-site competition curves were fitted using Prism 7 (GraphPad Software, La Jolla, CA, USA). Ki values were calculated using the Cheng–Prusoff equation.

[4] = target: T2, hM4Di (Homo sapiens, UniProt P08173, A203G/Y113C); test: Locomotor activity in D1-hM4Di mice
T2 sequence (P08173 1-479 Y113C/A203G): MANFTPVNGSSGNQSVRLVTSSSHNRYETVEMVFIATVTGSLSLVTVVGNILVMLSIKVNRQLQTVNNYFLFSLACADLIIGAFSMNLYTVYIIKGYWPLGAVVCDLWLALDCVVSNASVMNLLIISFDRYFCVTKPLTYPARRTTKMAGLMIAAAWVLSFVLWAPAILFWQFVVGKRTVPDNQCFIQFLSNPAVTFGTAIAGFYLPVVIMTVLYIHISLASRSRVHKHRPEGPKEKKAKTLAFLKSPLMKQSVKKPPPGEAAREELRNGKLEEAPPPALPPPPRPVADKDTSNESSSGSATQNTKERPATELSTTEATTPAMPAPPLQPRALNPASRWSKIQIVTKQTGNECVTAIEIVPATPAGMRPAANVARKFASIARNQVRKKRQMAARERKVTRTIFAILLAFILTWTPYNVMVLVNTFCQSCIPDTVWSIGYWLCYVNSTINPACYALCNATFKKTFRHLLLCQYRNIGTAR
Description: (§4) Wild-type mice (C57BL/6J) were ordered from Jackson Laboratories and rats (Sprague–Dawley) were ordered from Charles River. Rodents were male and ordered at ~6 weeks of age. Transgenic mice were bred at NIDA breeding facility. […] Three male rhesus monkeys (Macaca mulatta) weighed 8–12 kg. All experiments and procedures complied with all relevant ethical regulations for animal testing and research and followed NIH guidelines and were approved by each institute’s animal care and use committees.
(§5) Ten minutes after injection, animals were placed in an open field arena (Opto-varimex ATM3, Columbus Instruments) and their locomotor activity was tracked during 60 min as infrared beam crossings and traveled distance was converted to cm. Animals were repeatedly tested on consecutive sessions (after an initial habituation session with no drug treatment) in a counterbalanced design.

[5] = test system: WT mice; test: Locomotor activity in WT mice; conditions: WT mice
Description: as §4, §5

[6] = target: T2, hM4Di; test: BRET Galpha-o1 protein activation assay in HEK-293 cells transfected with hM4Di; assay type: cell-based; parameters: host or cells: HEK-293; conditions: BRET-based assay in HEK-293 cells
Description: as §1
BRET assays were performed to detect receptor ligand-induced Gαo1 protein activation. […] Forty-eight hour after transfection cells were harvested, washed and resuspended in phosphate-buffered saline (PBS). Approximately, 200,000 cells/well were distributed in 96-well plates, and 5 µM Coelenterazine H (substrate for luciferase) was added to each well. Five minutes after addition of Coelenterazine H, ligands were added to each well. […] Results were calculated for the BRET change (BRET ratio for the corresponding drug minus BRET ratio in the absence of the drug) 5 min after the addition of the ligands.

[7] = target: T1, hM3Dq; conditions: D1-hM3Dq mice, 0.01 to 1 mg kg-1
Description: as §4, §5

[8] = target: T2, hM4Di; test: [3H]clozapine competition binding, membranes of HEK-293 cells expressing hM4Di
Description: as §2, §3

SMILES: CCN1CCN(C2=Nc3cc(Cl)ccc3Nc3cccc(F)c32)CC1 [JHU37152, 8-Chloro-11-(4-ethylpiperazin-1-yl)-1-fluoro-5H-dibenzo[b,e][1,4]diazepine]
- functional response in HEK-293 cells lacking DREADDs [1]: no responses were observed; also recorded: did not produce any agonistic effect
- functional response, BRET (Go-alpha-Rluc8, beta1, gamma2-mVenus), no DREADD ([1]; HEK-293 cells): did not show any functional response
- functional response, GCaMP6f, no DREADD ([1]; HEK-293 cells): did not show any functional response
- EC50 [2]: 5 nM
- Ki [3]: 1.8 nM
- locomotor activity ([4]; D1-hM4Di mice, 0.01 to 1 mg kg-1): selectively inhibiting locomotor activity
- Locomotor activity, individual animals (Figure 3 Panel C) ([4]; dose 0.01): 58.5024 and 108.441 and 109.915 and 131.721 and 115.402 and 75.1276 and 118.881 and 108.271 and 41.4007
- Locomotor activity, individual animals (Figure 3 Panel C) ([4]; dose 0.1): 72.1502 and 118.453 and 147.655 and 108.28 and 115.789 and 27.5857 and 55.2206 and 30.1649 and 43.619
- Locomotor activity, individual animals (Figure 3 Panel C) ([4]; dose 1): 21.6168 and 115.427 and 110.069 and 108.688 and 73.7541 and 20.9336 and 36.5894 and 6.171 and 23.7054
- locomotor activity ([5]; 0.01 to 1 mg kg-1): without any significant locomotor effects
- Locomotor activity, individual animals (Figure 3 Panel A) ([5]; dose 0.01): 95.2897 and 38.5088 and 39.3587 and 61.0726 and 69.3706 and 99.6544 and 90.1854 and 160.23 and 57.4795 and 29.9947 and 33.6903 and 133.302 and 88.2496 and 102.637 and 90.23
- Locomotor activity, individual animals (Figure 3 Panel A) ([5]; dose 0.1): 107.254 and 270.493 and 33.7361 and 22.8384 and 36.807 and 76.5906 and 34.7692 and 97.3133 and 74.027 and 53.9478 and 95.1236 and 125.045 and 39.4044 and 129.319 and 143.965
- Locomotor activity, individual animals (Figure 3 Panel A) ([5]; dose 1): 81.5049 and 96.9074 and 39.4517 and 156.512 and 62.1842 and 92.749 and 79.3711 and 129.761 and 80.0996 and 7.993 and 23.9209 and 25.8105 and 93.4157 and 30.5341 and 90.9279
- EC50 [6]: 0.5 nM
- locomotor activity [7]: selectively inhibiting locomotor activity
- Ki [8]: 8.7 nM
